Experimental data as given in patent US8686002B2, “Heterocyclic compounds and their use as binding partners for 5-HT5 receptors” (AbbVie Deutschland GmbH & Co. KG, priority 2005, dated 2014).
Where a name gives a salt, the structure may show the parent alone.

molecular target: 5-HT5A (Homo sapiens, UniProt P47898); test: Affinity of selected compounds for 5-HT5A (Ki); assay type: binding
Procedure: In both assays, different concentrations of the test substances are used and the Ki and IC50 values are determined.

Sequence of 5-HT5A (P47898 whole entry): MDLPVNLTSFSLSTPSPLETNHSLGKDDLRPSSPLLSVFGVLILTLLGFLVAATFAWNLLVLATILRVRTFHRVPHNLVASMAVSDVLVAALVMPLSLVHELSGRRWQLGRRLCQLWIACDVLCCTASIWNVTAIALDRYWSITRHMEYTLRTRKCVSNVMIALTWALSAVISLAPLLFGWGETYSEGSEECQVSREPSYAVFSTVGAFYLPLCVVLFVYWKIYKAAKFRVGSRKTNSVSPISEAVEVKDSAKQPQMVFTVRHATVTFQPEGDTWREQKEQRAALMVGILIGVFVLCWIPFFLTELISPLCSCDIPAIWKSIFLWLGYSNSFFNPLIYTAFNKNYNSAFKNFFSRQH

Ki	Structure (SMILES)
< 300 nM	COc1ccccc1CN1Cc2ccccc2N=C1N [Example 64, 3-(2-Methoxybenzyl)-3,4-dihydroquinazolin-2-amine hydrochloride]
< 300 nM	COc1ccccc1CN1Cc2ccc(Cl)cc2N=C1N [Example 65, 7-Chloro-3-(2-methoxybenzyl)-3,4-dihydroquinazolin-2-amine]
< 300 nM	COc1ccccc1CN1Cc2ccc(C(F)(F)F)cc2N=C1N [Example 66, 3-(2-Methoxybenzyl)-7-(trifluoromethyl)-3,4-dihydroquinazolin-2-amine hydrochloride]
< 300 nM	COc1cc(Cl)ccc1CN1Cc2ccccc2N=C1N [Example 67, 3-(4-Chloro-2-methoxybenzyl)-3,4-dihydroquinazolin-2-amine hydrochloride]
< 300 nM	NC1=Nc2ccccc2CN1Cc1cccc2c1OCC2 [Example 68, 3-(2,3-Dihydro-1-benzofuran-7-ylmethyl)-3,4-dihydroquinazolin-2-amine hydrochloride]
< 300 nM	NC1=Nc2ccccc2CN1Cc1ccccc1OC(F)(F)F [Example 69, 3-[2-(Trifluoromethoxy)benzyl]-3,4-dihydroquinazolin-2-amine]
< 10000 nM	COc1ccc(CN2Cc3ccccc3N=C2N)c(OC)c1 [Example 70, 3-(2,4-Dimethoxybenzyl)-3,4-dihydroquinazolin-2-amine]
< 10000 nM	COc1cccc(CN2Cc3ccccc3N=C2N)c1OC [Example 71, 3-(2,3-Dimethoxybenzyl)-3,4-dihydroquinazolin-2-amine hydrochloride]
< 10000 nM	NC1=Nc2ccccc2CN1Cc1ccccc1O [Example 72, 2-[(2-Aminoquinazolin-3(4H)-yl)methyl]phenol]
< 10000 nM	COc1ccccc1CN1Cc2ccccc2N=C1NO [Example 73, 2-(Hydroxyamino)-3-(2-methoxybenzyl)-3,4-dihydroquinazoline]
< 300 nM	COc1ccccc1CN1Cc2ccccc2N=C1NC1Cc2ccccc2C1 [Example 74, N-(2,3-Dihydro-1H-inden-2-yl)-3-(2-methoxybenzyl)-3,4-dihydroquinazolin-2-amine acetate]
< 10000 nM	COc1ccccc1CN1Cc2ccccc2N=C1NCc1cccnc1 [Example 75, 3-(2-Methoxybenzyl)-2-[(pyridin-3-ylmethyl)amino]-3,4-dihydroquinazoline acetate]
< 10000 nM	CCCCNC1=Nc2ccccc2CN1Cc1ccccc1OC [Example 76, 2-(Butylamino)-3-(2-methoxybenzyl)-3,4-dihydroquinazoline hydrochloride]
< 10000 nM	COc1ccccc1CN1Cc2ccccc2N=C1NCC(C)C [Example 77, 2-(Isobutylamino)-3-(2-methoxybenzyl)-3,4-dihydroquinazoline acetate]
< 10000 nM	COc1ccccc1CN1Cc2ccccc2N=C1N1CCNCC1 [Example 78, 3-(2-Methoxybenzyl)-2-piperazin-1-yl-3,4-dihydroquinazoline hydrochloride]
< 10000 nM	COc1ccccc1CN1Cc2ccccc2N=C1N1CCN(C)CC1 [Example 79, 3-(2-Methoxybenzyl)-2-(4-methylpiperazin-1-yl)-3,4-dihydroquinazoline fumarate]
< 10000 nM	COc1ccccc1CN1Cc2ccccc2N=C1N1CCN(Cc2ccccc2)CC1 [Example 80, 2-(4-Benzylpiperazin-1-yl)-3-(2-methoxybenzyl)-3,4-dihydroquinazoline fumarate]
< 300 nM	COc1cccc(OC)c1CN1Cc2ccc(Br)cc2N=C1N [Example 81, 7-Bromo-3-(2,6-dimethoxybenzyl)-3,4-dihydroquinazolin-2-amine]
< 300 nM	COc1cccc(OC)c1CN1Cc2ccc(-c3ccccc3)cc2N=C1N [Example 82, 3-(2,6-Dimethoxybenzyl)-7-phenyl-3,4-dihyroquinazoli-2-aminium acetate]

Ki	Structure (SMILES)
< 10000 nM	COc1ccc(-c2ccc3c(c2)N=C(N)N(Cc2c(OC)cccc2OC)C3)cc1 [Example 83, 3-(2,6-Dimethoxybenzyl)-7-(4-methoxyphenyl)-3,4-dihydroquinazolin-2-aminium acetate]
< 300 nM	COc1cccc(OC)c1CN1Cc2ccc(C)cc2N=C1N [Example 84, 3-(2,6-Dimethoxybenzyl)-7-methyl-3,4-dihydroquinazolin-2-aminium acetate]
< 300 nM	COc1cccc(OC)c1CN1Cc2ccc(-c3cccnc3)cc2N=C1N [Example 85, 3-(2,6-Dimethoxybenzyl)-7-pyridin-3-yl-3,4-dihydroquinazolin-2-aminium acetate]
< 300 nM	COc1cccc(OC)c1CN1Cc2ccc(-c3cccs3)cc2N=C1N [Example 86, 3-(2,6-Dimethoxybenzyl)-7-(2-thienyl)-3,4-dihydroquinazolin-2-aminium acetate]
< 300 nM	COc1cccc(OC)c1CN1Cc2ccc(-c3ccc(OC(F)(F)F)cc3)cc2N=C1N [Example 87, 3-(2,6-Dimethoxybenzyl)-7-[4-trifluoromethoxy)phenyl]-3,4-dihydroquinazoline-2-aminium acetate]
< 300 nM	COc1cccc(OC)c1CN1Cc2ccc(Nc3ccccc3)cc2N=C1N [Example 88, 7-Anilino-3-(2,6-dimethoxybenzyl)-3,4-dihydroquinazolin-2-aminium acetate]
< 300 nM	COc1cccc(OC)c1CN1Cc2cc(Cl)ccc2N=C1N [Example 89, 6-Chloro-3-(2,6-dimethoxybenzyl)-3,4-dihydroquinazolin-2-amine]
< 300 nM	COc1cccc(OC)c1CN1Cc2ccc(Cl)cc2N=C1N [Example 90, 7-Chloro-3-(2,6-dimethoxybenzyl)-3,4-dihydroquinazolin-2-amine]
< 300 nM	COc1ccccc1CN1Cc2ccc([N+](=O)[O-])cc2N=C1N [Example 91, 3-(2-Methoxybenzyl)-7-nitro-3,4-dihydroquinazolin-2-amine]
< 300 nM	COc1cccc(OC)c1CN1Cc2ccccc2N=C1NC1CCCCCC1 [Example 92, N-Cycloheptyl-3-(2,6-dimethoxybenzyl)-3,4-dihydroquinazolin-2-amine hydrochloride]
< 10000 nM	COc1cccc(OC)c1CN1Cc2ccccc2N=C1NCc1cccc2ccccc12 [Example 93, 3-(2,6-Dimethoxybenzyl)-N-(1-naphthylmethyl)-3,4-dihydroquinazolin-2-amine hydrochloride]
< 10000 nM	COc1cccc(OC)c1CN1Cc2ccccc2N=C1NCc1ccccn1 [Example 94, [3-(2,6-Dimethoxybenzyl)-3,4-dihydroquinazolin-2-yl]pyridin-2-ylmethylamine hydrochloride]
< 10000 nM	COc1cccc(OC)c1CN1Cc2ccccc2N=C1NCc1ccccc1 [Example 95, N-Benzyl-3-(2,6-dimethoxybenzyl)-3,4-dihydroquinazolin-2-amine hydrochloride]
< 10000 nM	COc1ccccc1CN1Cc2ccccc2N=C1NC1CCN(Cc2ccccc2)CC1 [Example 96, N-(1-Benzylpiperidin-4-yl)-3-(2-methoxybenzyl)-3,4-dihydroquinazolin-2-amine fumarate]
< 10000 nM	COc1ccccc1CN1Cc2ccccc2N=C1NCCc1ccccc1 [Example 97, [3-(2-Methoxybenzyl)-3,4-dihydroquinazolin-2-yl]phenethylamine hydrochloride]
< 10000 nM	COc1ccccc1CN1Cc2ccccc2N=C1NCc1cccc2ccccc12 [Example 98, 3-(2-Methoxybenzyl)-N-(1-naphthylmethyl)-3,4-dihydroquinazolin-2-amine hydrochloride]
< 10000 nM	COc1ccccc1CN1Cc2ccccc2N=C1NCc1cccs1 [Example 100, 3-(2-Methoxybenzyl)-N-(2-thienylmethyl)-3,4-dihydroquinazolin-2-amine hydrochloride]
< 300 nM	COc1ccc2c(c1)CN(Cc1ccccc1OC)C(N)=N2 [Example 101, 6-Methoxy-3-(2-methoxybenzyl)-3,4-dihydroquinazolin-2-amine]
< 300 nM	COc1ccccc1CN1Cc2cc(Cl)ccc2N=C1N [Example 102, 6-Chloro-3-(2-methoxybenzyl)-3,4-dihydroquinazolin-2-amine]
